# Experimental data from patent US7371766B2, “Curcumin analogs with anti-tumor and anti-angiogenic properties” (Emory University, priority 1999, dated 2008).
# Legend:
# [1] = system: NCI/ADR-RES; test: cells; settings: Homo sapiens, 48 h; for GI50: read-out: Median Growth Inhibitory Concentration (GI50); for CC50: read-out: Median Lethal Concentration (LC50)
# [2] = system: M14; test: cells; settings: Homo sapiens, M14, 48 h; for GI50: read-out: Median Growth Inhibitory Concentration (GI50); for CC50: read-out: Median Lethal Concentration (LC50)
# [3] = system: IGROV1; test: cells; settings: Homo sapiens, IGROV-1, 48 h; for GI50: read-out: Median Growth Inhibitory Concentration (GI50); for CC50: read-out: Median Lethal Concentration (LC50)
# [4] = system: U251; test: cells; settings: Homo sapiens, U-251, 48 h; for GI50: read-out: Median Growth Inhibitory Concentration (GI50); for CC50: read-out: Median Lethal Concentration (LC50)
# [5] = system: SNB-75; settings: 48 hours; for GI50: read-out: Median Growth Inhibitory Concentration (GI50), SNB-75, CNS Cancer
# [6] = system: MDA-N; settings: for GI50: read-out: Median Growth Inhibitory Concentration (GI50), Breast Cancer, 48 hours
# [7] = system: HOP-62; settings: 48 hours; for GI50: read-out: Median Growth Inhibitory Concentration (GI50), HOP-62, Non-Small Cell Lung Cancer
# [8] = system: KM12; settings: 48 hours; for GI50: read-out: Median Growth Inhibitory Concentration (GI50), KM12, Colon Cancer
# [9] = system: RXF 393; settings: 48 hours; for GI50: read-out: Median Growth Inhibitory Concentration (GI50), RXF 393, Renal Cancer
# [10] = system: MOLT-4; settings: 48 hours; for GI50: read-out: Median Growth Inhibitory Concentration (GI50), MOLT-4, Leukemia
# [11] = system: SK-OV-3; settings: 48 hours; for GI50: read-out: Median Growth Inhibitory Concentration (GI50), SK-OV-3, Ovarian Cancer
# [12] = system: RPMI-8226; settings: 48 hours; for GI50: read-out: Median Growth Inhibitory Concentration (GI50), RPMI-8226, Leukemia
# [13] = system: SK-MEL-5; settings: 48 hours; for GI50: read-out: Median Growth Inhibitory Concentration (GI50), SK-MEL-5, Melanoma
# [14] = system: 786-0; settings: 48 hours; for GI50: read-out: Median Growth Inhibitory Concentration (GI50), 786-0, Renal Cancer
# [15] = system: OVCAR-8; settings: 48 hours; for GI50: read-out: Median Growth Inhibitory Concentration (GI50), OVCAR-8, Ovarian Cancer
# [16] = system: BT-549; settings: 48 hours; for GI50: read-out: Median Growth Inhibitory Concentration (GI50), BT-549, Breast Cancer
# [17] = system: OVCAR-3; settings: 48 hours; for GI50: read-out: Median Growth Inhibitory Concentration (GI50), OVCAR-3, Ovarian Cancer
# [18] = system: SR; settings: for GI50: read-out: Median Growth Inhibitory Concentration (GI50), Leukemia, 48 hours
# [19] = system: COLO 205; settings: 48 hours; for GI50: read-out: Median Growth Inhibitory Concentration (GI50), COLO 205, Colon Cancer
# [20] = system: HCT-15; settings: 48 hours; for GI50: read-out: Median Growth Inhibitory Concentration (GI50), HCT-15, Colon Cancer
# [21] = system: SF-539; settings: 48 hours; for GI50: read-out: Median Growth Inhibitory Concentration (GI50), SF-539, CNS Cancer
# [22] = system: CAKI-1; settings: 48 hours; for GI50: read-out: Median Growth Inhibitory Concentration (GI50), CAKI-1, Renal Cancer
# [23] = system: NCI-H226; settings: 48 hours; for GI50: read-out: Median Growth Inhibitory Concentration (GI50), NCI-H226, Non-Small Cell Lung Cancer
# [24] = system: MDA-MB-435; settings: 48 hours; for GI50: read-out: Median Growth Inhibitory Concentration (GI50), MDA-MB-435, Breast Cancer
# [25] = system: ACHN; settings: for GI50: read-out: Median Growth Inhibitory Concentration (GI50), Renal Cancer, 48 hours
# [26] = system: SK-MEL-28; settings: 48 hours; for GI50: read-out: Median Growth Inhibitory Concentration (GI50), SK-MEL-28, Melanoma
# [27] = system: UO-31; settings: 48 hours; for GI50: read-out: Median Growth Inhibitory Concentration (GI50), UO-31, Renal Cancer
# [28] = system: SF-268; settings: 48 hours; for GI50: read-out: Median Growth Inhibitory Concentration (GI50), SF-268, CNS Cancer
# [29] = system: HCT-116; settings: 48 hours; for GI50: read-out: Median Growth Inhibitory Concentration (GI50), HCT-116, Colon Cancer
# [30] = system: CCRF-CEM; settings: for GI50: read-out: Median Growth Inhibitory Concentration (GI50), Leukemia, 48 hours
# [31] = system: SN12C; settings: for GI50: read-out: Median Growth Inhibitory Concentration (GI50), Renal Cancer, 48 hours
# [32] = system: HOP-92; test: cells; settings: Homo sapiens, HOP-92, 48 h; for GI50: read-out: Median Growth Inhibitory Concentration (GI50); for CC50: read-out: Median Lethal Concentration (LC50)
# [33] = read-out: Median Lethal Concentration (LC50), Leukemia, 48 hours, SRB assay
# [34] = read-out: Median Lethal Concentration (LC50), Renal Cancer, 48 hours, SRB assay
compound,measurement,setting,value
COc1cc(/C=C/C(=O)CC(=O)/C=C/c2ccc(O)c(OC)c2)ccc1O [Curcumin],GI50,[1],7.9 µM
same,CC50,[1],< 100 µM
same,GI50,[2],4 µM
same,CC50,[2],50.1 µM
same,GI50,[3],7.9 µM
same,CC50,[3],79.4 µM
same,GI50,[4],5 µM
same,CC50,[4],50.1 µM
C(=C\c1ccccc1)/S/C=C/c1ccccc1 [EF15],GI50,[5],98.8 µM
same,GI50,[6],67.8 µM
same,GI50,[7],> 100000 nM
same,GI50,[8],55.7 µM
same,GI50,[9],23.5 µM
same,GI50,[10],> 100000 nM
same,GI50,[11],> 100000 nM
same,GI50,[12],49.8 µM
same,GI50,[13],53.9 µM
same,GI50,[14],> 100000 nM
same,GI50,[15],> 100000 nM
same,GI50,[16],> 100000 nM
same,GI50,[17],> 100000 nM
same,GI50,[18],52 µM
same,GI50,[19],> 100000 nM
same,GI50,[20],49.1 µM
same,GI50,[21],> 100000 nM
same,GI50,[22],> 100000 nM
same,GI50,[23],> 100000 nM
same,GI50,[24],61.2 µM
same,GI50,[25],> 100000 nM
same,GI50,[26],83.7 µM
same,GI50,[27],96.8 µM
same,GI50,[28],> 100000 nM
same,GI50,[29],> 100000 nM
same,GI50,[30],41.5 µM
same,GI50,[31],> 100000 nM
"O=C(C=Cc1ccc(F)cc1F)C=Cc1ccc(F)cc1F [EF9, 1,5-Bis(2,4-difluorophenyl)penta-1,4-dien-3-one]",GI50,[32],16.3 µM
same,CC50,[32],70.4 µM
same,GI50,[1],30.7 µM
same,CC50,[1],> 100 µM
same,GI50,[2],4.1 µM
same,CC50,[2],48.6 µM
same,GI50,[3],3.8 µM
same,CC50,[3],46.2 µM
same,GI50,[4],2.1 µM
same,CC50,[4],12.9 µM
"CC(=O)O.O=C1C(=Cc2ccccc2F)CNCC1=Cc1ccccc1F [EF24, 3,5-Bis-(2-fluorobenzylidene)-piperidin-4-one-acetate]",GI50,[32],3 µM
same,CC50,[32],23.3 µM
same,GI50,[1],0.9 µM
same,CC50,[1],60.6 µM
same,GI50,[2],1.2 µM
same,CC50,[2],27.7 µM
same,GI50,[3],0.8 µM
same,CC50,[3],7.1 µM
same,GI50,[4],0.2 µM
same,CC50,[4],0.8 µM
"O=C1C(=Cc2ccccc2O)COCC1=Cc1ccccc1O [EF25, 3,5-Bis(2-hyrdoxybenzylidene)tetrahydro4-H-pyran4-one]",GI50,[5],1.8 µM
same,CC50,"[5]; read-out: Median Lethal Concentration (LC50), CNS Cancer, SNB-75, SRB assay",14 µM
same,GI50,[6],1 µM
same,CC50,"[6]; read-out: Median Lethal Concentration (LC50), Breast Cancer, 48 hours, SRB assay",20 µM
same,GI50,[7],1500 nM
same,CC50,"[7]; read-out: Median Lethal Concentration (LC50), Non-Small Cell Lung Cancer, HOP-62, SRB assay",37.2 µM
same,GI50,[8],0.3 µM
same,CC50,"[8]; read-out: Median Lethal Concentration (LC50), Colon Cancer, KM12, SRB assay",10.7 µM
same,GI50,[9],0.6 µM
same,CC50,"[9]; read-out: Median Lethal Concentration (LC50), Renal Cancer, RXF 393, SRB assay",4.6 µM
same,GI50,[10],400 nM
same,CC50,"[10]; read-out: Median Lethal Concentration (LC50), Leukemia, MOLT-4, SRB assay",> 100 µM
same,GI50,[11],2400 nM
same,CC50,"[11]; read-out: Median Lethal Concentration (LC50), Ovarian Cancer, SK-OV-3, SRB assay",26.9 µM
same,GI50,[12],0.2 µM
same,CC50,"[12]; read-out: Median Lethal Concentration (LC50), Leukemia, RPMI-8226, SRB assay",70.9 µM
same,GI50,[13],1.5 µM
same,CC50,"[13]; read-out: Median Lethal Concentration (LC50), Melanoma, SK-MEL-5, SRB assay",6.6 µM
same,GI50,[14],400 nM
same,CC50,"[14]; read-out: Median Lethal Concentration (LC50), Renal Cancer, 786-O, SRB assay",32.6 µM
same,GI50,[15],800 nM
same,CC50,"[15]; read-out: Median Lethal Concentration (LC50), Ovarian Cancer, OVCAR-8, SRB assay",23 µM
same,GI50,[16],1500 nM
same,CC50,"[16]; read-out: Median Lethal Concentration (LC50), Breast Cancer, BT-549, SRB assay",13.6 µM
same,GI50,[17],900 nM
same,CC50,"[17]; read-out: Median Lethal Concentration (LC50), Ovarian Cancer, OVCAR-3, SRB assay",23.5 µM
same,GI50,[18],0.2 µM
same,CC50,[18]; [33],76.3 µM
same,GI50,[19],2000 nM
same,CC50,"[19]; read-out: Median Lethal Concentration (LC50), Colon Cancer, COLO 205, SRB assay",33.4 µM
same,GI50,[20],0.7 µM
same,CC50,"[20]; read-out: Median Lethal Concentration (LC50), Colon Cancer, HCT-15, SRB assay",16.1 µM
same,GI50,[21],500 nM
same,CC50,"[21]; read-out: Median Lethal Concentration (LC50), CNS Cancer, SF-539, SRB assay",16.8 µM
same,GI50,[22],1800 nM
same,CC50,"[22]; read-out: Median Lethal Concentration (LC50), Renal Cancer, CAKI-1, SRB assay",53.7 µM
same,GI50,[23],2200 nM
same,CC50,"[23]; read-out: Median Lethal Concentration (LC50), Non-Small Cell Lung Cancer, NCI-H226, SRB assay",58 µM
same,GI50,[24],1 µM
same,CC50,"[24]; read-out: Median Lethal Concentration (LC50), Breast Cancer, MDA-MB-435, SRB assay",16.3 µM
same,GI50,[25],1500 nM
same,CC50,[25]; [34],18.2 µM
same,GI50,[26],2.4 µM
same,CC50,"[26]; read-out: Median Lethal Concentration (LC50), Melanoma, SK-MEL-28, SRB assay",6.6 µM
same,GI50,[27],1.2 µM
same,CC50,"[27]; read-out: Median Lethal Concentration (LC50), Renal Cancer, UO-31, SRB assay",68.1 µM
same,GI50,[28],1400 nM
same,CC50,"[28]; read-out: Median Lethal Concentration (LC50), CNS Cancer, SF-268, SRB assay",43.3 µM
same,GI50,[29],800 nM
same,CC50,"[29]; read-out: Median Lethal Concentration (LC50), Colon Cancer, HCT-116, SRB assay",11.1 µM
same,GI50,[30],0.3 µM
same,CC50,[30]; [33],> 100 µM
same,GI50,[31],1400 nM
same,CC50,[31]; [34],12 µM
"OC(CCc1ccc(F)cc1F)CCc1ccc(F)cc1F [EF19, 1,5-Bis(2,4-difluorophenyl)-pentan-3-ol]",GI50,[32],17.5 µM
same,CC50,[32],59.3 µM
same,GI50,[1],25.3 µM
same,CC50,[1],> 100 µM
same,GI50,[2],18.3 µM
same,CC50,[2],68.7 µM
same,GI50,[3],17.2 µM
same,CC50,[3],55.6 µM
same,GI50,[4],17.4 µM
same,CC50,[4],55.8 µM
CC1(/C=C/c2ccccc2O)C=Cc2ccccc2O1 (stereo not shown) [EF7],GI50,[32],12.7 µM
same,CC50,[32],54.9 µM
same,GI50,[1],19.3 µM
same,CC50,[1],> 100 µM
same,GI50,[2],15.7 µM
same,CC50,[2],54 µM
same,GI50,[3],15.9 µM
same,CC50,[3],60.9 µM
same,GI50,[4],16.1 µM
same,CC50,[4],54.4 µM
"O=C1C(=Cc2ccccc2O)CCCC1=Cc1ccccc1O [EF4, 2,6Bis(2-hydroxybenzylidene)cyclohexanone]",GI50,[32],2.8 µM
same,CC50,[32],41.4 µM
same,GI50,[1],2.7 µM
same,CC50,[1],> 100 µM
same,GI50,[2],1.9 µM
same,CC50,[2],13.2 µM
same,GI50,[3],2.9 µM
same,CC50,[3],43.9 µM
same,GI50,[4],2 µM
same,CC50,[4],18.5 µM
